B1: serum CEA: blood biomarker carcinoembryonic antigen secreted by LS174T cells (protein, UniProt P06731 35-685, looked up)
Cell adhesion molecule CEACAM5: KLTIESTPFNVAEGKEVLLLVHNLPQHLFGYSWYKGERVDGNRQIIGYVIGTQQATPGPAYSGREIIYPNASLLIQNIIQNDTGFYTLHVIKSDLVNEEATGQFRVYPELPKPSISSNNSKPVEDKDAVAFTCEPETQDATYLWWVNNQSLPVSPRLQLSNGNRTLTLFNVTRNDTASYKCETQNPVSARRSDSVILNVLYGPDAPTISPLNTSYRSGENLNLSCHAASNPPAQYSWFVNGTFQQSTQELFIPNITVNNSGSYTCQAHNSDTGLNRTTVTTITVYAEPPKPFITSNNSNPVEDEDAVALTCEPEIQNTTYLWWVNNQSLPVSPRLQLSNDNRTLTLLSVTRNDVGPYECGIQNELSVDHSDPVILNVLYGPDDPTISPSYTYYRPGVNLSLSCHAASNPPAQYSWLIDGNIQQHTQELFISNITEKNSGLYTCQANNSASGHSRTTVKTITVSAELPKPSISSNNSKPVEDKDAVAFTCEPEAQNTTYLWWVNGQSLPVSPRLQLSNGNRTLTLFNVTRNDARAYVCGIQNSVSANRSDPVTLDVLYGPDTPIISPPDSSYLSGANLNLSCHSASNPSPQYSWRINGIPQQHTQVLFIAKITPNNNGTYACFVSNLATGRNNSIVKSITVSASGTSPGLSA

How the values were obtained:
[1] = test system: liver collagen; conditions: mouse, in vivo
Protocol: In vivo imaging. […] FVB/NJ mice (Jackson Labs) were fed with 0.1% w/w DDC (Sigma) rodent chow for three weeks (Research Diets). Fibrotic and age control animals were i.v. infused with VivoTag-680 labeled reagents and visualized by IVIS imaging (Xenogen).
For in situ zymography, fibrotic sections were covered with 90 μl solution of 0.5% w/v low melt agarose (Sigma) in MMP activation buffer (50 mM Tris, 150 NaCl, 5 mM CaCl2, 0.025% Brij 35, pH 7.5) with 10 μl of DQ-gelation (1 mg/ml, Invitrogen) and Hoechst dye at 37° C. Slides were solidified at 4° C. and then incubated at room temperature overnight to promote gelation proteolysis by tissue proteases. To quantify hepatic collagen, tissue from the right and left lobes (250-300 mg) were hydrolyzed in 5 ml of 6 N HCl at 110° C. for 16 hours followed by hydroxyproline quantification as previously described.^43 To quantify CEA, blood was collected from tumor animals into Capiject microtubes (Terumo) to isolate serum before ELISA analysis (Calbiotech). For immunofluorescence analysis, equimolar NW cocktails (5 μM/peptide) were administered in Fibrotic FVB/NJ or tumor bearing Nude mice. After perfusion, livers or tumors were fixed in 4% PFA, froze for sectioning, and stained for F4/80 (AbD Serotec), MMP-9 (R&D Biosystems), CD31 (Santa Cruz Biotechnologies) and/or FITC (Genetex) before analyzed by fluorescence microscopy (Nikon Eclipse Ti). […]

[2] = set-up: species or system FVB/NJ mice; conditions: mouse, in vivo, iv
From the text: Using this assay, increases in sample fluorescence were observed upon proteolytic cleavage of the tethered fluorescent peptides resulting from abrogation of homoquenching between adjacent fluorophores. Initial reaction velocities were extracted for each protease-substrate combination and compiled for comparative analysis (FIG. 10a,b). FIG. 10 illustrates selecting protease-sensitive substrates for NW-chaperoned urinary trafficking. Kinetics of peptide-NW cleavage monitored by fluorimetry are shown in (a). Specific protease-substrate combinations led to rapid activation. […] IVIS in vivo imaging of DDC treated and control animals following intravenous injection of VivoTag-680 labeled Glu-fib peptides, (d) peptide-free NWs, or (e) peptide-conjugated NWs.

[3] = test system: hepatic fibrosis and resolution in DDC-treated mice; test: iCORE LC MS/MS analysis of urinary reporters after i.v. NW cocktail, DDC liver fibrosis model; type: in vivo, FVB/NJ mice; conditions: for individual iCORE peak intensity (DDC over control) relative to pretreatment: DDC-treated mice, NWs administered at 0, 3, 7 and 11 weeks, urine, n=10
Protocol: (§1) Mice were intravenously infused with 200 μl of PBS containing equimolar NW cocktails (5 μM per peptide) with EDTA-free protease inhibitor tablets (Roche) to isolate MMP activity. Mice were placed over 96-well plates surrounded by cylindrical sleeves for urine collection. To prevent further reporter degradation, voided samples were spiked with EDTA+ complete protease inhibitors (Roche) immediately after collection. To quantify urinary fluorescence, 2 μL of each sample was incubated with magnetic beads (Dynal) coated with α-FITC antibodies (Genetex) in 50 μl binding buffer ([…], 0.01% CHAPS) for 1 hr at 37° C., washed twice with 100 mM NH4OAc, and eluted twice with 15 μl of 5% acetic acid. Samples were neutralized with 2 M Tris and quantified by microplate fluorimetry. For iCORE analysis, samples were irradiated with UV for 30 min. before TCA precipitation (20% final volume) to remove proteins. Soluble fractions were applied to C18 reverse phase columns (Nest Group) and eluted via step gradients of 20% ACN increments in 0.1% formic acid. 60% ACN fractions containing Glu-fib peptides were collected and dried by vacuum centrifuge.
Peptide samples were reconstituted in 5% ACN, 0.1% formic acid and analyzed at MIT or the Taplin MS facility (Harvard Medical School). At MIT, peptides were captured and eluted from a C18 nanoflow HPLC column (75 μm internal diameter Magic C18 AQ, Michrom BioResources, Inc.) at a flow rate of 300 nL/min using water-acetonitrile solvent system with 0.1% formic acid. ESI mass spectrometry was carried out on a QSTAR Elite QTOF mass spectrometer (AB Sciex). At Harvard, samples are reconstituted in 2.5% ACN, 0.1% formic acid. Samples are injected using a Famos autosampler (LC Packings) into an Agilent 1100 HPLC prior to mass analysis on a LTQ-Orbitrap (Thermo Electron). To account for discrepancies in urine volumes and concentration, peak intensities of individual reporters were scaled relative to its respective total iCORE ion current before normalization against control samples to account for technical and age-related variations.
Pearson's correlation coefficients between different protease profiles were calculated with MatLAB. ANOVA analyses were calculated with GraphPad 5.0 (Prism). For ROC analysis, risk score functions were first estimated by logistic regression on individual biomarkers followed by ROC curve analyses of single or biomarker combinations (SigmaPlot).
Thus, to monitor the transitions between fibrosing and resolving disease, NWs were administered at 0, 3, 7, and 11 weeks into DDC-treated and age-matched control animals followed by iCORE MS/MS analysis.
The diagnostic performance of these biomarkers was determined by performing receiver operating characteristic (ROC) analyses for individual as well as biomarker combinations. ROC curves characterize the sensitivity and specificity of a biomarker as a function of the discrimination threshold by returning the area under the curve (AUC) as a performance metric with a baseline AUC of 0.5 representing a random biomarker classifier (dashed line, FIG. 11g,h).

[4] = test system: LS174T xenograft tumors; test: iCORE MS/MS analysis of urinary reporters after i.v. NW library, colorectal tumor xenograft model; type: in vivo, athymic nude mice; conditions: LS 174T tumor vs control, day 10; n=16 (8 ctrl, 8 tumor)
Protocol: as §1, with “60% ACN fractions containing Glu-fib peptides were collected and dried by vacuum centrifuge.” left out
Peptide samples were reconstituted in 5% ACN, 0.1% formic acid and analyzed at MIT or the Taplin MS facility (Harvard Medical School). […]
Pearson's correlation coefficients between different protease profiles were calculated with MatLAB. ANOVA analyses were calculated with GraphPad 5.0 (Prism). […]

[5] = test system: LS174T xenograft tumors; test: Serum CEA by ELISA in tumor animals; type: in vivo, athymic nude mice
Protocol: To quantify hepatic collagen, tissue from the right and left lobes (250-300 mg) were hydrolyzed in 5 ml of 6 N HCl at 110° C. for 16 hours followed by hydroxyproline quantification as previously described.^43 To quantify CEA, blood was collected from tumor animals into Capiject microtubes (Terumo) to isolate serum before ELISA analysis (Calbiotech).
Here, it was investigated whether panels of synthetic urinary biomarkers could be readily adapted to allow earlier and more accurate detection of cancer compared with single clinical blood biomarkers, e.g., because nanoparticles can be passively targeted to tumors to sample proteases through fenestrated angiogenic tumor vessels.^16. In order to explore this concept, athymic nude mice were used bearing LS174T xenograft tumors, a human colorectal cancer (CRC) cell line^38 that secretes the blood biomarker carcinoembryonic antigen (CEA) as a model system (FIG. 22). […] Following implantation, tumor engraftment was monitored by sampling serum every 3 days and analyzing for CEA by ELISA (FIG. 23b,c). […] Tumors permitted to grow further were readily detected by CEA analysis (day 13 and 16), representing a limit of detection of ˜330 mm3 (d ˜8.6 mm) (**P<0.01, Two way ANOVA, n=5). […] To determine the full diagnostic potential of multiplexed analysis, individual biomarkers were quantified by iCORE MS/MS.

| Molecule | individual iCORE peak intensity (DDC over control) relative to pretreatment [3] | other results |
| --- | --- | --- |
| 3,5-diethoxycarbonyl-1,4-dihydrocollidine [DDC] |  | drop in liver collagen [1]: ~30% |
| EGVNDNEEGFFSAR [Glu-fib, prototypic urinary marker peptide] |  | liver homing [2]: undetectable; urinary filtration / urinary fluorescence [2]: efficiently filtered into urine |
| eGVndnee^+3G^+6FfsAr-X-K(FAM)GGf(Pip)KSGGGC-NW [Biomarker G10] | did not deviate from initial pretreatment activities |  |
| eG^+5VndneeGFfs^+4Ar-X-K(FAM)GGPVPLSLVMC-NW [Biomarker G5] | significantly decreasing at week 3 | ROC area under the curve (AUC), fibrosing biomarkers ([3]; fibrosing window of 0-3 weeks, baseline AUC 0.5): 0.96 |
| eG^+6Vndnee^+2GFfs^+1Ar-X-K(FAM)GGPWGIWGQGC-NW [Biomarker G4] | strongly increased relative to pretreatment baselines |  |
| e^+1GVndnee^+2G^+6FfsAr-X-K(FAM)GGfPRSGGGC-NW [Biomarker G9] | did not deviate from initial pretreatment activities |  |
| e^+1G^+6Vndnee^+2GFfsAr-X-K(FAM)GGPVGLIGC-NW [Biomarker G3] | strongly increased relative to pretreatment baselines |  |
| e^+2GVndneeG^+6Ffs^+1Ar-X-K(FAM)GGf(Pip)RSGGGC-NW [Biomarker G8] | did not deviate from initial pretreatment activities |  |
| e^+2G^+6Vndnee^+1GFfsAr-X-K(FAM)GGLVPRGSGC-NW [Biomarker G2] | did not deviate from initial pretreatment activities |  |
| e^+3GVndneeG^+6FfsAr-X-K(FAM)GGPLGVRGKC-NW [Biomarker G7] | elevating sharply at week 3 followed by a rapid reversal at week 7 |  |
| e^+3G^+1Vndnee^+1GFfs^+4Ar-X-K(FAM)GGPLGLRSWC-NW [Biomarker G6] | significantly decreasing at week 3 |  |
| e^+3G^+6VndneeGFfsAr-X-K(FAM)GGPQGIWGQC-NW [Biomarker G1] | did not deviate from initial pretreatment activities | ROC area under the curve (AUC), tumor biomarkers [4]: 0.78; ROC area under the curve (AUC), resolving biomarkers ([3]; resolving time frame of 7-11 weeks, baseline AUC 0.5): 0.73 |
| B1 |  | ROC area under the curve (AUC), serum CEA ([5]; day 10): 0.61; limit of detection (tumor burden) by CEA analysis ([5]; day 13 and 16): ~330 mm3 |

Reference: US11549947B2, “Multiplexed detection with isotope-coded reporters” (Massachusetts Institute of Technology, priority 2011, dated 2023)
